In US7846436B2, “Oligonucleotides and related compounds” (ChemGenes Corporation, priority 2003, dated 2010):
[dFC] = 2'-deoxy-2',2'-difluorocytidine (gemcitabine) nucleoside, linked at the 5' end of the ODN; d = 2'-deoxy (DNA)

How the values were obtained:
[1] = Stability studies in pyridine and ammonia (TLC, Rf, UV, HPLC); format: physicochemical; settings: 37° C., 18 hrs
Protocol: The 2′-deoxy, 2′,2′-difluorocytidine derivatives, N-Bz-Gemcitabine and 5′-O-DMT-(N-bz) Gemcitabine prepared as above, were tested for their stability.

[2] = tested on: human colon adenocarcinoma cancerous cells HT29; assay: Flow cytometric DNA cell cycle profile, killing of colon cancer cells; format: cell-based; settings: for killing colon cancer cells HT29, compared with Gemcitabine (Gemzar) alone at equivalent dosages: 20 and 50 ng/ml Gemzar equivalent, 1 hour treatment, then 47 hours in normal medium without drugs, FIG. 13
[3] = tested on: human colon normal cells CCD112CoN; assay: Flow cytometric DNA cell cycle profile, killing of colon normal cells; format: cell-based; settings: 20 and 50 ng/ml Gemzar equivalent; 1 hour treatment, then 47 hours in normal medium without drugs; FIG. 14
Protocol: Monolayer cultures of human colon adenocarcinoma cancerous cells HT29 (American Type Culture Collection HTB-38), and human colon normal cells CCD112CoN (American Type Culture Collection CRL-1541) were grown in DMEM growth medium, or Dulbecco's modified Eagle's medium (DMEM; Sigma Chemical Co., St. Louis, Mo.) containing 10% fetal bovine serum (FBS; Biological Industries, Kibbutz, Israel). Incubation was in 10% CO2 at 37° C.
Gemzar (MW 299.5), or 2′-deoxy, 2′,2′-difluorocytidine hydrochloride for injection, as manufactured by Lilly France S.A., Fegersheim, France). Gemzar-ODNs were 2′-deoxy, 2′,2′-difluorocytidine (dFC, or difluorodeoxycitidine) linked to 4 oligodeoxynucleotide (ODN) sequences (synthesized by Chemgenes Corp, Wilmington, Mass.) as follows:
Aqueous stock solutions were prepared at the Gemzar or Gemzar-equivalent concentration of 0.2 mg/ml. Parallel monolayer cultures in log phase growth were treated for 1 hr at 37° C. with a final concentration of 0, 20 and 50 ng/ml of Gemzar or Gemzar equivalent from each of the 4 sequences of Gemzar-ODN that were synthesized. After the 1 hr pulse treatment with either Gemzar or Gemzar-ODNs, the cell cultures were reincubated for another 47 hr at 37° C. in normal DMEM growth medium without Gemzar or Gemzar-ODN. Control cultures were similar parallel cultures and had similar 1 hr and 47 hr reincubations, except without any Gemzar or Gemzar-ODN content. After the 47 hr reincubation, all cultures were evaluated at the same time for their DNA cell cycle profile using flow cytometry.
This was evaluated as previously described (Cell Death Differ. 4: 213-223, 1997; Exp. Cell Res. 240: 293-304, 1998). Propidium iodide (PI) stock solution was prepared at 50 ug/ml in tris buffered saline (1.21 mg/ml Tris, 0.584 mg/ml NaCl). Ribonuclease A (RNase A) was freshly added to the PI stock solution at 6 mg/ml immediately before use. Cells were harvested by scraping with a cell scraper and triturated to obtain a single cell suspension using a hypodermic syringe fitted with a 21-gauge needle. Cells were spun down at 1000 g for 5 min, and washed once in 5 ml phosphate buffered saline (PBS A, Oxoid, London, UK). Cells were then permeabilized by resuspending in 1% Bouin's fluid (15 parts 1.2% saturated aqueous picric acid, 5 parts formalin, 1 part glacial acetic acid) in PBS. Cells were repelleted and suspend in the PI-RNase for 1 hour over ice, before flow cytometric evaluation at ex/em 488/590 nm and 20,000 counts sample size. The Coulter Epics Elite ESP flow cytometer and Workstation program version 4.01 (Coulter Electronics, Hialeah, Fla.) were used with WinMDI version 2.8 (Scripps Research Institute, La Jolla, Calif.

**Q.** For `COc1ccc(C(OC[C@H]2O[C@@H](n3ccc(NC(=O)c4ccccc4)nc3=O)C(F)(F)[C@@H]2O)(c2ccccc2)c2ccc(OC)cc2)cc1` [Compound III, 5′-O-DMT (N-Bz) 2′-deoxy, 2′,2′-difluorocytidine], which “stability (breakdown) in pyridine and ammonia” value [1] is on record?
**A.** no breakdown of Gemcitabine, other than loss of the protecting group

**Q.** Which results are given for `O=C(Nc1ccn([C@@H]2O[C@H](CO)[C@@H](O)C2(F)F)c(=O)n1)c1ccccc1` [Compound II, N-Benzoyl-2′-deoxy, 2′,2′-difluorocytidine]?
**A.** stability (breakdown) in pyridine and ammonia [1]: converted into 2′-deoxy, 2′,2′-difluorocytidine completely without any deterioration and byproduct formation; stability (breakdown) in pyridine and ammonia ([1]; listed as N-Bz-Gemcitabine): no breakdown of Gemcitabine, other than loss of the protecting group

**Q.** With `Cl.Nc1ccn([C@@H]2O[C@H](CO)[C@@H](O)C2(F)F)c(=O)n1` [Gemzar, 2′-deoxy, 2′,2′-difluorocytidine hydrochloride, reference compound] as the compound, how does the “difference between the killing of cancer cells and normal cells” value ([2]; HT29 (FIG. 13) compared with CCD-112CO (FIG. 14) at equivalent dosages) read?
**A.** only minimal difference

**Q.** With “dFC GGA CGT GGA ACG (NGGACGTGGAACG; sugars from the 5' end [dFC]1 d12, backbone, methylation of C and the base at N not given here) [GEMCITABINE-ODN-Seq. I.D.#9, Gemzar-ODN]” as the compound, how does the “killing colon normal cells CCD-112CO, compared with Gemcitabine (Gemzar) alone at equivalent dosages” value [3] read?
**A.** more effectively than by treatment with GEMCITABINE alone

**Q.** And the “killing colon cancer cells HT29, compared with Gemcitabine (Gemzar) alone at equivalent dosages” value [2]?
**A.** much more effectively than by treatment with GEMCITABINE alone

**Q.** With “dFC GGA GCT GGA ACG (NGGAGCTGGAACG; sugars from the 5' end [dFC]1 d12, backbone, methylation of C and the base at N not given here) [GEMCITABINE-ODN-Seq. I.D.#10, Gemzar-ODN]” as the compound, how does the “killing colon normal cells CCD-112CO, compared with Gemcitabine (Gemzar) alone at equivalent dosages” value [3] read?
**A.** more effectively than by treatment with GEMCITABINE alone

**Q.** And the “killing colon cancer cells HT29, compared with Gemcitabine (Gemzar) alone at equivalent dosages” value [2]?
**A.** much more effectively than by treatment with GEMCITABINE alone

**Q.** With “dFC GTG GAA CG (NGTGGAACG; sugars from the 5' end [dFC]1 d8, backbone, methylation of C and the base at N not given here) [GEMCITABINE-ODN-Seq. I.D.#8, Gemzar-ODN]” as the compound, how does the “killing colon normal cells CCD-112CO, compared with Gemcitabine (Gemzar) alone at equivalent dosages” value [3] read?
**A.** more effectively than by treatment with GEMCITABINE alone

**Q.** And the “killing colon cancer cells HT29, compared with Gemcitabine (Gemzar) alone at equivalent dosages” value [2]?
**A.** much more effectively than by treatment with GEMCITABINE alone

**Q.** With “dFC GGA CG (NGGACG; sugars from the 5' end [dFC]1 d5, backbone, methylation of C and the base at N not given here) [GEMCITABINE-ODN-Seq. I.D.#7, Gemzar-ODN]” as the compound, how does the “killing colon normal cells CCD-112CO, compared with Gemcitabine (Gemzar) alone at equivalent dosages” value [3] read?
**A.** more effectively than by treatment with GEMCITABINE alone

**Q.** And the “killing colon cancer cells HT29, compared with Gemcitabine (Gemzar) alone at equivalent dosages” value [2]?
**A.** much more effectively than by treatment with GEMCITABINE alone
